From the NIST ThermoML archive (doi:10.1007/s10765-013-1539-3)

Assay: wn = mass fraction of the nth substance listed
Details: Gas, Steady Flow

[HH] [hydrogen] + CC
binary diffusion coefficient [m2/s], w1 = 0.5
Details	250 K	280 K	320 K	400 K	480 K	560 K	640 K	720 K	800 K	900 K
100 kPa	4.29e-05	5.2e-05	6.5e-05	9.5e-05	0.000131	0.00017	0.000212	0.000261	0.000313	0.000382
3500 kPa	–	–	1.46e-05	2.53e-05	3.6e-05	4.81e-05	6.2e-05	7.6e-05	9.1e-05	0.00011
7000 kPa	–	–	3.3e-06	1.15e-05	1.75e-05	2.4e-05	3.1e-05	3.81e-05	4.61e-05	5.59e-05
10500 kPa	–	–	2.4e-06	6.8e-06	1.13e-05	1.58e-05	2.04e-05	2.52e-05	3e-05	3.72e-05
14000 kPa	–	–	2.21e-06	5e-06	8.6e-06	1.2e-05	1.58e-05	1.94e-05	2.33e-05	2.83e-05

[HH] [hydrogen] + N#N
binary diffusion coefficient [m2/s], w1 = 0.5
Details	250 K	300 K	350 K	400 K	500 K	600 K	700 K	800 K	900 K
100 kPa	5.86e-05	8e-05	0.000104	0.000131	0.000192	0.000261	0.00034	0.000427	0.000523
4000 kPa	1.52e-05	2.04e-05	2.68e-05	3.37e-05	4.95e-05	6.8e-05	8.8e-05	0.00011	0.000134
7000 kPa	8.8e-06	1.24e-05	1.63e-05	2.05e-05	3.01e-05	4.1e-05	5.32e-05	6.65e-05	8.11e-05
10000 kPa	6e-06	8.5e-06	1.13e-05	1.41e-05	2.07e-05	2.82e-05	3.65e-05	4.56e-05	5.55e-05
15000 kPa	4.21e-06	6e-06	7.9e-06	9.8e-06	1.45e-05	1.96e-05	2.51e-05	3.15e-05	3.8e-05

[HH] [hydrogen] + C
binary diffusion coefficient [m2/s], w1 = 0.5
Details	250 K	280 K	320 K	400 K	480 K	560 K	640 K	720 K	800 K	900 K
100 kPa	5.3e-05	6.6e-05	8.3e-05	0.000124	0.000173	0.000227	0.00029	0.00036	0.000434	0.00054
4000 kPa	1.32e-05	1.84e-05	2.31e-05	3.62e-05	5.1e-05	6.7e-05	8.4e-05	0.000106	0.000129	0.000159
7000 kPa	6.3e-06	8.5e-06	1.17e-05	1.82e-05	2.52e-05	3.43e-05	4.35e-05	5.4e-05	6.5e-05	8.1e-05
10000 kPa	3.8e-06	5.4e-06	7.5e-06	1.2e-05	1.72e-05	2.3e-05	2.93e-05	3.61e-05	4.41e-05	5.42e-05
15000 kPa	2.91e-06	4.05e-06	5.8e-06	9.5e-06	1.36e-05	1.79e-05	2.28e-05	2.81e-05	3.37e-05	4.11e-05

[HH] [hydrogen] + CCC
binary diffusion coefficient [m2/s], w1 = 0.5
Details	250 K	280 K	320 K	400 K	480 K	560 K	640 K	720 K	800 K	900 K
100 kPa	3.28e-05	4.01e-05	5e-05	7.4e-05	0.000101	0.000131	0.000164	0.0002	0.00024	0.000292
3500 kPa	–	–	–	1.6e-05	2.58e-05	3.56e-05	4.57e-05	5.63e-05	6.8e-05	8.3e-05
7000 kPa	–	–	–	4.5e-06	1.14e-05	1.7e-05	2.21e-05	2.78e-05	3.37e-05	4.24e-05
10500 kPa	–	–	–	2.98e-06	6.8e-06	1.07e-05	1.47e-05	1.83e-05	2.23e-05	2.83e-05
14000 kPa	–	–	–	2.72e-06	4.9e-06	7.89e-06	1.08e-05	1.37e-05	1.65e-05	2.04e-05

[C-]#[O+] [carbon monoxide] + [HH]
binary diffusion coefficient [m2/s], w2 = 0.5
Details	250 K	300 K	350 K	400 K	500 K	600 K	700 K	800 K	900 K
100 kPa	5.6e-05	7.7e-05	0.000101	0.000127	0.000188	0.000258	0.000337	0.000425	0.000522
4000 kPa	1.32e-05	1.96e-05	2.58e-05	3.28e-05	4.84e-05	6.6e-05	8.7e-05	0.000109	0.000134
7000 kPa	8e-06	1.16e-05	1.52e-05	1.96e-05	2.89e-05	3.97e-05	5.14e-05	6.5e-05	7.9e-05
10000 kPa	5.6e-06	8.1e-06	1.09e-05	1.38e-05	2.03e-05	2.79e-05	3.63e-05	4.55e-05	5.58e-05
15000 kPa	4e-06	5.6e-06	7.4e-06	9.4e-06	1.42e-05	1.96e-05	2.63e-05	3.35e-05	4.2e-05
